Laboratory results as given in patent publication US20200270309A1, “MALEIMIDE GROUP-MODIFIED ANGIOGENESIS INHIBITOR HM-1 AND USE THEREOF” (NANJING ANJI BIOLOGICAL TECHNOLOGY CO., LTD, priority 2017, published 2020).
Marks after values point to notes of the source that are not given here. Peptide text beside a SMILES is read from it. * marks the point of attachment. X58 = O=C1C=CC(=O)N1c1cccc(CCCCCCCCCCCC(=O)*)c1; X74 = O=C1C=CC(=O)N1c1cccc(CCCCCCCCCCC(=O)*)c1; X64 = O=C1C=CC(=O)N1c1cccc(CCCCCCCCCC(=O)*)c1; X59 = O=C1C=CC(=O)N1c1cccc(CCCCCCCCC(=O)*)c1; X72 = O=C1C=CC(=O)N1c1ccccc1CCCCCCCCCCC(=O)*; X66 = O=C1C=CC(=O)N1c1cccc(CCCCCCCC(=O)*)c1; X75 = O=C1C=CC(=O)N1c1cccc(CC(=O)*)c1

Test system: xylene-induced ear swelling
Experiment: Xylene-induced mouse ear swelling
Format: in vivo
Conditions: Kunming mice, injected once a day for 5 days; for Swelling degree / Swelling degree (mg): right minus left ear piece weight 2 h after xylene; for Inhibition rate (%): xylene-induced ear swelling
Protocol: Kunming mice were taken, a normal saline group was taken as a blank control group, an aspirin group (200 mg/kg) was taken as a positive control group, and X1-X90 administration groups were taken as test groups. The mice were injected once a day for 5 consecutive days. The blank control group was given an equal volume of normal saline. One hour after the last administration, 0.05 mL of xylene was applied to both sides of the right ear of each mouse to cause inflammation, while no drug was applied to the left ear as a normal ear. Two hours later, the mice were put to death by dislocation. Two ears were cut along the auricle. Ear pieces were taken with a puncher and weighed, and the swelling degree and the swelling rate were calculated. Swelling degree=right ear piece weight-left ear piece weight, swelling rate=(swelling degree/left ear piece weight)*100%. Statistical t-test was conducted on the experimental results. *P<0.05 indicates significant difference, and **P<0.01 indicates extremely significant difference.

Row | SMILES | Swelling degree (dose 2 mg/kg) [mg] | Inhibition rate (%) (dose 2 mg/kg) | Swelling degree (mg) (dose 4 mg/kg) | Inhibition rate (%) (dose 4 mg/kg) | Swelling degree (mg) (dose 8 mg/kg) | Inhibition rate (%) (dose 8 mg/kg) | Swelling degree (mg) (dose 2 mg/kg)
1 | C[C@H](NC(=O)CNC(=O)[C@H](CCCNC(=N)N)NC(=O)CCCCCCCCCCCc1cccc(N2C(=O)C=CC2=O)c1)C(=O)N[C@@H](CC(=O)O)C(=O)N[C@@H](CCCNC(=N)N)C(=O)N[C@@H](C)C(=O)NCC(=O)NCC(=O)NCC(=O)NCC(=O)N[C@@H](CCCNC(=N)N)C(=O)NCC(=O)N[C@@H](CC(=O)O)C(=O)O [X35] (X58-RGADRAGGGGRGD-OH) | 5.59 ± 0.91 | 10.27 | 4.78 ± 0.64* mg | 23.27 | 3.48 ± 0.28** mg | 44.14 | 
2 | C[C@H](NC(=O)CNC(=O)[C@H](CCCNC(=N)N)NC(=O)Cc1cccc(N2C(=O)C=CC2=O)c1)C(=O)N[C@@H](CC(=O)O)C(=O)N[C@@H](CCCNC(=N)N)C(=O)N[C@@H](C)C(=O)NCC(=O)NCC(=O)NCC(=O)NCC(=O)N[C@@H](CCCNC(=N)N)C(=O)NCC(=O)N[C@@H](CC(=O)O)C(=O)O [X25] (X75-RGADRAGGGGRGD-OH) | 5.62 ± 0.64 | 9.79 | 4.45 ± 0.20* mg | 28.57 | 3.3 ± 0.06** mg | 47.03 | 
3 | C[C@H](NC(=O)CNC(=O)[C@H](CCCNC(=N)N)NC(=O)CCCCCCCCCCc1ccccc1N1C(=O)C=CC1=O)C(=O)N[C@@H](CC(=O)O)C(=O)N[C@@H](CCCNC(=N)N)C(=O)N[C@@H](C)C(=O)NCC(=O)NCC(=O)NCC(=O)NCC(=O)N[C@@H](CCCNC(=N)N)C(=O)NCC(=O)N[C@@H](CC(=O)O)C(=O)O [X22] (X72-RGADRAGGGGRGD-OH) |  | 24.24 | 3.67 ± 0.77** mg | 41.09 | 3.42 ± 0.21** mg | 45.10 | 4.72 ± 0.29* mg
4 | C[C@H](NC(=O)CNC(=O)[C@H](CCCNC(=N)N)NC(=O)CCCCCCCCCc1cccc(N2C(=O)C=CC2=O)c1)C(=O)N[C@@H](CC(=O)O)C(=O)N[C@@H](CCCNC(=N)N)C(=O)N[C@@H](C)C(=O)NCC(=O)NCC(=O)NCC(=O)NCC(=O)N[C@@H](CCCNC(=N)N)C(=O)NCC(=O)N[C@@H](CC(=O)O)C(=O)O [X33] (X64-RGADRAGGGGRGD-OH) | 3.22 ± 0.59 | 17.34 | 5.15 ± 0.19* mg | 29.21 | 4.41 ± 0.9** mg | 48.31 | 
5 | C[C@H](NC(=O)CNC(=O)[C@H](CCCNC(=N)N)NC(=O)CCCCCCCc1cccc(N2C(=O)C=CC2=O)c1)C(=O)N[C@@H](CC(=O)O)C(=O)N[C@@H](CCCNC(=N)N)C(=O)N[C@@H](C)C(=O)NCC(=O)NCC(=O)NCC(=O)NCC(=O)N[C@@H](CCCNC(=N)N)C(=O)NCC(=O)N[C@@H](CC(=O)O)C(=O)O [X31] (X66-RGADRAGGGGRGD-OH) |  |  | 4.22 ± 0.51** mg | 32.26 | 5.18 ± 0.71** mg | 49.28 | 
6 | C[C@H](NC(=O)CNC(=O)[C@H](CCCNC(=N)N)NC(=O)CCCCCCCCCCc1cccc(N2C(=O)C=CC2=O)c1)C(=O)N[C@@H](CC(=O)O)C(=O)N[C@@H](CCCNC(=N)N)C(=O)N[C@@H](C)C(=O)NCC(=O)NCC(=O)NCC(=O)NCC(=O)N[C@@H](CCCNC(=N)N)C(=O)NCC(=O)N[C@@H](CC(=O)O)C(=O)O [X34] (X74-RGADRAGGGGRGD-OH) |  | 38.04 | 3.36 ± 0.53** mg | 46.07 | 3.2 ± 0.39** mg | 48.64 | 3.86 ± 0.43** mg
7 | C[C@H](NC(=O)CNC(=O)[C@H](CCCNC(=N)N)NC(=O)CCCCCCCCc1cccc(N2C(=O)C=CC2=O)c1)C(=O)N[C@@H](CC(=O)O)C(=O)N[C@@H](CCCNC(=N)N)C(=O)N[C@@H](C)C(=O)NCC(=O)NCC(=O)NCC(=O)NCC(=O)N[C@@H](CCCNC(=N)N)C(=O)NCC(=O)N[C@@H](CC(=O)O)C(=O)O [X32] (X59-RGADRAGGGGRGD-OH) | 5.17 ± 0.06 | 17.01 | 4.83 ± 0.02* mg | 22.47 | 3.69 ± 0.56** mg | 40.77 | 
